# What was measured:
# HSP70 [1] = assay: HSP70 protein boosting in HL-1 cardiomyocytes after mild heat shock (Western blot); assay type: cell-based, mouse; parameters: key to HSP boosting HL-1 cardiomyocytes Protein HSP70: 0 = no induction HSP levels; + = 2-10-fold induction; ++ = 10-30-fold induction; +++ = > 30-fold induction; conditions: for induction of mammalian HSP70 protein expression: HL-1, mild heat shock, 10 μM, 6 hours; for HSP boosting HL-1 cardiomyocytes Protein HSP70: mild heat shock 44°C 10 min, then compound 10 μM for 6 hours, Western blot
# Experimental: HL-1 atrial myocytes, a cell line derived from adult mouse atria were obtained from Dr. William Claycomb (Louisiana State University, New Orleans, La., USA). The myocytes were maintained in Complete Claycomb Medium (JRH, UK) supplemented with 100 μM norepinephrine stock (consisting of 10 mM norepinephrine (Sigma, The Netherlands) dissolved in 0.3 mM L-ascorbic acid (Sigma)), 4 mM L-glutamine (Gibco, The Netherlands) and 10% FBS (Sigma). The myocytes were cultured in flasks coated with 0.02% gelatin (Sigma), in a 5% CO2 atmosphere at 37° C.
# HL-1 cardiomyocytes were subjected to a mild heat shock of 44° C. for 10 minutes. After a recovery of 10 minutes (37 degrees 5% CO2), compounds were added in a final concentration of 10 μM (dissolved in DMSO, final concentration 0.1%). To control myocytes, 0.1% DMSO was added. After six hours the cells were lysed in RIPA buffer and used for Western blotting as described previously.^3, 10
# (§1) Western-blot analysis was performed as described previously^3, 10. Equal amount of protein in SDS-PAGE sample buffer was sonicated before separation on 10% PAA-SDS gels. After transfer to nitrocellulose membranes (Stratagene, The Netherlands), membranes were incubated with primary antibodies against HSP25 (Stressgen, The Netherlands, SPA-801, 1:1000), HSP27 (Stressgen, SPA-800, 1:1000), HSP70 (Stressgen, SPA-810, 1:1000), GAPDH (Affinity Reagents, The Netherlands) or PARP (Santa Cruz, The Netherlands, sc-7150, 1:500). Horseradish peroxidase-conjugated anti-mouse or anti-rabbit (Santa-Cruz Biotechnology, The Netherlands) was used as secondary antibody. Signals were detected by the ECL-detection method (Amersham, The Netherlands) and quantified by densitometry using GeneTools software from Syngene (The Netherlands).
# Compounds were also screened for HSP70 boosting effects. Hereto, HL-1 cardiomyocytes were first subjected to a mild heat shock which activates the Heat Shock Factor. After the mild heat shock, compound (10 μM) was added to the medium of HL-1 cardiomyocytes for 6 hours, followed by determination of the HSP70 amount.
# HSP70 [2] = assay: HSP70 mRNA (qPCR) in HL-1 cardiomyocytes after mild heat shock; assay type: cell-based, mouse; conditions: then compound 10 μM for 6 hours
# Experimental: (§2) HL-1 cardiomyocytes were subjected to a mild heat shock of 44° C. for 10 minutes. After a recovery of 10 minutes (37 degrees 5% CO2), compounds were added in a final concentration of 10 μM (dissolved in DMSO, final concentration 0.1%). To control myocytes, 0.1% DMSO was added. After six hours the cells were lysed in RIPA buffer and used for Western blotting as described previously.^3, 10 Compounds were also screened for their ability to upregulate HSP gene expression. Hereto, HL-1 cardiomyocytes were first subjected to a mild heat shock which activates the Heat Shock Factor. After the mild heat shock, compound (10 μM) was added to the medium of HL-1 cardiomyocytes for 6 hours, followed by determination of HSP70, HSP25, HSP90 and HSP40 which are targets of the heat shock factor 1 (HSF1) transcription factor. In addition, we determined mRNA levels of the gene encoding the glucose-responsive protein 78 (Grp78) which is HSF1-independent.
# HSP25 = HSP25 mRNA (qPCR) in HL-1 cardiomyocytes after mild heat shock; assay type: cell-based, mouse; conditions: then compound 10 μM for 6 hours
# Experimental: as §2
# HSP90 = HSP90 mRNA (qPCR) in HL-1 cardiomyocytes after mild heat shock; assay type: cell-based, mouse; conditions: then compound 10 μM for 6 hours
# Experimental: as §2
# HSP40 = HSP40 mRNA (qPCR) in HL-1 cardiomyocytes after mild heat shock; assay type: cell-based, mouse; conditions: then compound 10 μM for 6 hours
# Experimental: as §2
# [3] = tested on: glucose-responsive protein 78 (Grp78); assay: Grp78 mRNA (qPCR, HSF1-independent) in HL-1 cardiomyocytes; assay type: cell-based, mouse; parameters: key to HSP boosting HL-1 cardiomyocytes mRNA (qPCR) Grp78 Not HSF1: 0 = no induction HSP levels; + = 2-10-fold induction; ++ = 10-30-fold induction; +++ = > 30-fold induction; conditions: for upregulation of Grp78 mRNA: HL-1, mild heat shock, 10 μM, 6 hours; for HSP boosting HL-1 cardiomyocytes mRNA (qPCR) Grp78 Not HSF1: mild heat shock, then compound 10 μM for 6 hours
# Experimental: as §2
# [4] = tested on: HSP70, HSP25, HSP90 and HSP40; assay: Upregulation of HSP gene expression (HSF1 targets) in HL-1 cardiomyocytes; assay type: cell-based, mouse; conditions: HL-1, mild heat shock, 10 μM, 6 hours
# Experimental: as §2
# [5] = tested on: MCF-7 breast cancer cells; assay: MCF-7 cell death, ratio death/living cells (trypan blue); assay type: cell-based, human; parameters: key to Cell Death MCF-7 cancer cells Death/living 100 μM: 0 = no dead cells; + = P < 0.05; ++ = P < 0.01; +++ = P < 0.001; conditions: 100 μM; 16-20 hours; trypan blue
# Experimental: MCF-7 breast cancer cells were cultured in DMEM supplemented with 10% FCS. […] Ratio death and living cells was determined by using trypan blue staining of death cells. The cell pellets were lysed in RIPA buffer and used for Western blot analysis.
# Since we observed that some compounds aggravate tachypacing-induced contractile dysfunction, we next investigated if these compounds can induce programmed cell death in a human breast cancer cell-line MCF-7. […] In total 28 compounds were tested for cell death. […] GGA was used as a control as well as non-treated MCF-7 cells. […] The findings indicate that GGA-like compounds which aggravate heart failure can induce programmed cell death in MCF-7 breast cancer cell-line.
# HSP27 = HSP27 Western blot in MCF-7 cells; assay type: cell-based, human; parameters: key: + = P < 0.05; ++ = P < 0.01; +++ = P < 0.001; conditions: MCF-7 lysate, 16-20 hours
# Experimental: (§3) MCF-7 breast cancer cells were cultured in DMEM supplemented with 10% FCS. Test compounds were added to the medium in a final concentration of […] for 16-20 hours. Ratio death and living cells was determined by using trypan blue staining of death cells. The cell pellets were lysed in RIPA buffer and used for Western blot analysis.
# as §1
# HSP70 [6] = assay: HSP70 Western blot in MCF-7 cells; assay type: cell-based, human; parameters: key: + = P < 0.05; ++ = P < 0.01; +++ = P < 0.001; conditions: MCF-7 lysate, 16-20 hours
# Experimental: as §3, §1
# PARP = PARP cleavage in MCF-7 cells (Western blot); assay type: cell-based, human; parameters: key to Cell Death MCF-7 cancer cells PARP: 0 = no dead cells; + = P < 0.05; ++ = P < 0.01; +++ = P < 0.001; conditions: MCF-7 lysate, Western blot, 16-20 hours
# Experimental: as §3, §1
# Since we observed that some compounds aggravate tachypacing-induced contractile dysfunction, we next investigated if these compounds can induce programmed cell death in a human breast cancer cell-line MCF-7. Hereto, MCF-7 cells were incubated for 16 hours with 10 μM of a test compound after which the number of death and living cells was determined. In total 28 compounds were tested for cell death. […] GGA was used as a control as well as non-treated MCF-7 cells. […] The findings indicate that GGA-like compounds which aggravate heart failure can induce programmed cell death in MCF-7 breast cancer cell-line.
# HSP70 [7] = assay: Hsp70 induction in murine proximal tubule (MPT) cells (Western blot); assay type: cell-based; conditions: 40 μM, 5 hours, outperformed positive control GGA
# Experimental: Murine proximal tubule (MPT) cells were isolated and cultured as described previously (Borkan et al. Heat stress ameliorates ATP depletion-induced sublethal injury in mouse proximal tubule cells. Am. J. Physiol. 1997; F347-55).
# The MPT cells were exposed to 40 μM of compound for 5 hours, after which the cells were harvested in RIPA buffer followed by Western blotting.
# For Western-blot analysis, equal amount of protein in SDS-PAGE sample buffer was separated on 10% PAA-SDS gels. After transfer to nitrocellulose membranes (Stratagene, USA), membranes were incubated with primary antibodies against HSP70 (Enzo C92F3A/StressGen SP810) or beta-actin (Sigma A541). Horseradish peroxidase-conjugated anti-mouse or anti-sheep (Jackson ImmunoRes) was used as secondary antibody. Signals were detected by the ECL-detection method (Amersham).
SMILES,induction of mammalian HSP70 protein expression (HSP70 [1]),HSP boosting HL-1 cardiomyocytes mRNA (qPCR) HSP 70 (HSP70 [2]),HSP boosting HL-1 cardiomyocytes mRNA (qPCR) HSP 25 (HSP25),HSP boosting HL-1 cardiomyocytes mRNA (qPCR) HSP 90 (HSP90),HSP boosting HL-1 cardiomyocytes mRNA (qPCR) HSP 40 (HSP40),upregulation of Grp78 mRNA [3],HSP boosting HL-1 cardiomyocytes mRNA (qPCR) Grp78 Not HSF1 [3],induction of HSP gene expression [4],HSP boosting HL-1 cardiomyocytes Protein HSP70 (HSP70 [1]),Cell Death MCF-7 cancer cells Death/living 100 μM [5],Cell Death MCF-7 cancer cells HSP 27 (HSP27),Cell Death MCF-7 cancer cells HSP 70 (HSP70 [6]),Cell Death MCF-7 cancer cells PARP (PARP),induction of HSP70 expression in renal (MPT) cells (HSP70 [7])
CCOC(=O)C(Cc1ccccc1)C(=O)CC/C=C(\C)CCC=C(C)C (stereo not shown) [Compound 23],potent inducers,++ (++ = 10-30-fold induction),+ (+ = 2-10-fold induction),+ (+ = 2-10-fold induction),+ (+ = 2-10-fold induction),no upregulation,0,strong inducers,,,,,,
CC(C)=CCC/C(C)=C/CCc1cc(C)[nH]n1 [Compound 32],,,,,,,,,+ (+ = 2-10-fold induction),0,+ (+ = P < 0.05),0,0,strong inducers
CC(C)=CCC/C(C)=C/CN1C(=O)CCC1=O [Compound 47],,,,,,,,,,,,,,strong inducers
CC(C)=CCC/C(C)=C/CNC(=O)CN(C)C [Compound 49],potent inducers,,+++ (+++ = > 30-fold induction),+++ (+++ = > 30-fold induction),+++ (+++ = > 30-fold induction),,0,,+++ (+++ = > 30-fold induction),0,0,0,0,strong inducers
"CCOC(=O)CC(=O)c1ccccc1O [Compound 60, Ethyl 3-(2-hydroxyphenyl)-3-oxopropanoate]",potent inducers,,,,,no upregulation,,strong inducers,,,,,,
CCOC(=O)C(CC)C(=O)CC/C=C(\C)CCC=C(C)C (stereo not shown) [Compound 69],,,,,,,,,0,,,,,strong inducers
"CCOC(=O)C(C)(C)C(=O)CC/C=C(\C)CCC=C(C)C [Compound 76, (E)-ethyl 2,2,7,11-tetramethyl-3-oxododeca-6,10-dienoate]",potent inducers,+++ (+++ = > 30-fold induction),++ (++ = 10-30-fold induction),++ (++ = 10-30-fold induction),+ (+ = 2-10-fold induction),no upregulation,0,strong inducers,+++ (+++ = > 30-fold induction),,,,,
CC(=O)N[C@@H](C)C(=O)NC/C=C(\C)CCC=C(C)C [Compound 95],potent inducers,,+ (+ = 2-10-fold induction),++ (++ = 10-30-fold induction),+ (+ = 2-10-fold induction),,0,,+++ (+++ = > 30-fold induction),,,,,strong inducers
CC(=O)OC/C=C(\C)CC/C=C(\C)COC1CCCCO1 (stereo not shown) [Compound 106],,,,,,,,,,,,,,strong inducers
"CC(=O)CC/C=C(\C)CC/C=C(\C)CC/C=C(\C)CCC=C(C)C [GGA, (5E,9E,13E)-6,10,14,18-tetramethylnonadeca-5,9,13,17-tetraen-2-one, reference compound]",,+ (+ = 2-10-fold induction),++ (++ = 10-30-fold induction),++ (++ = 10-30-fold induction),+ (+ = 2-10-fold induction),,0,,++ (++ = 10-30-fold induction),0,+ (+ = P < 0.05),0,0,
